Values of other authors, collected in US20080077374A1, “Method for predicting biological, biochemical, biophysical or pharmacological characteristics of a substance” (priority 2006, published 2008).
Like-named read-outs stand apart in the source and are kept apart here.

Experiments:
male Sprague Dawley rats = conditions: for Diagnosis cc: clinical chemistry; for Diagnosis histo: histopathology; for Main target: main toxicity target; for observed severity of histological lesions: liver, labelled by COMET1 study number
HanWistar rats = HanWistar rats (study R12)
[1] = SpragueDawley rats, refinement of the principal toxicity

CNC=O [N-methylformamid]
Subclass/Indication (male Sprague Dawley rats; SpragueDawley rats): Toxicant | Diagnosis cc (male Sprague Dawley rats; SpragueDawley rats): + | Diagnosis histo (male Sprague Dawley rats; SpragueDawley rats): 2 | Main target (male Sprague Dawley rats; SpragueDawley rats): Hepatotoxic | 2nd toxicity (male Sprague Dawley rats; [1]): Direct reaction

NN [Hydrazine]
Subclass/Indication (male Sprague Dawley rats; SpragueDawley rats): Toxicant | Diagnosis cc (male Sprague Dawley rats; SpragueDawley rats): + | Diagnosis histo (male Sprague Dawley rats; SpragueDawley rats): 7 | Main target (male Sprague Dawley rats; SpragueDawley rats): Hepatotoxic | 2nd toxicity (male Sprague Dawley rats; [1]): Steatosis | 2nd toxicity (HanWistar rats): Steatosis | Subclass/Indication (HanWistar rats): Toxicant | Diagnosis cc (HanWistar rats; clinical chemistry): + | Diagnosis histo (HanWistar rats; histopathology): 7 | Main target (HanWistar rats; main toxicity target): Hepatotoxic

Gentamicin
Subclass/Indication (male Sprague Dawley rats; SpragueDawley rats): Toxin | Diagnosis cc (male Sprague Dawley rats; SpragueDawley rats): + | Diagnosis histo (male Sprague Dawley rats; SpragueDawley rats): 3sub | Main target (male Sprague Dawley rats; SpragueDawley rats): Nephrotoxic | 2nd toxicity (male Sprague Dawley rats; [1]): Proximal

O=C(O)/C=C\C(=O)O [Maleic acid]
2nd toxicity (male Sprague Dawley rats; rat, in vivo): Proximal

CC(=O)Nc1nnc(S(N)(=O)=O)s1 [Acetazolamide]
2nd toxicity (male Sprague Dawley rats; rat, in vivo): Papilla

CN(C)N=O [Di-methylnitrosamin]
Subclass/Indication (male Sprague Dawley rats; SpragueDawley rats): Toxicant | Diagnosis cc (male Sprague Dawley rats; SpragueDawley rats): + | Diagnosis histo (male Sprague Dawley rats; SpragueDawley rats): 2 | Main target (male Sprague Dawley rats; SpragueDawley rats): Hepatotoxic | 2nd toxicity (male Sprague Dawley rats; [1]): Direct reaction | observed severity of histological lesions (male Sprague Dawley rats): marked liver lesions

CCOC(=O)C(C)(C)Oc1ccc(Cl)cc1 [Clofibrate]
Subclass/Indication (male Sprague Dawley rats; SpragueDawley rats): Toxicant | Diagnosis cc (male Sprague Dawley rats; SpragueDawley rats): + | Diagnosis histo (male Sprague Dawley rats; SpragueDawley rats): 9sub | Main target (male Sprague Dawley rats; SpragueDawley rats): Hepatotoxic | observed severity of histological lesions (male Sprague Dawley rats): no or minimal liver lesions | 2nd toxicity (male Sprague Dawley rats; rat, in vivo): Peroxisome

CN[C@H](CC(C)C)C(=O)N[C@H]1C(=O)N[C@@H](CC(N)=O)C(=O)N[C@H]2C(=O)N[C@H]3C(=O)N[C@H](C(=O)N[C@H](C(=O)O)c4cc(O)cc(O)c4-c4cc3ccc4O)[C@H](O)c3ccc(c(Cl)c3)Oc3cc2cc(c3O[C@@H]2O[C@H](CO)[C@@H](O)[C@H](O)[C@H]2O[C@H]2C[C@](C)(N)[C@H](O)[C@H](C)O2)Oc2ccc(cc2Cl)[C@H]1O [Vancomycin]
Subclass/Indication (male Sprague Dawley rats; SpragueDawley rats): Toxicant | Diagnosis cc (male Sprague Dawley rats; SpragueDawley rats): + | Diagnosis histo (male Sprague Dawley rats; SpragueDawley rats): 3reg | Main target (male Sprague Dawley rats; SpragueDawley rats): Nephrotoxic | 2nd toxicity (male Sprague Dawley rats; [1]): Proximal

CN(Cc1cnc2nc(N)nc(N)c2n1)c1ccc(C(=O)N[C@@H](CCC(=O)O)C(=O)O)cc1 [Methotrexate]
Subclass/Indication (male Sprague Dawley rats; SpragueDawley rats): Toxicant | Diagnosis cc (male Sprague Dawley rats; SpragueDawley rats): − | Diagnosis histo (male Sprague Dawley rats; SpragueDawley rats): 1hea | Main target (male Sprague Dawley rats; SpragueDawley rats): Hemotoxic | 2nd toxicity (male Sprague Dawley rats; rat, in vivo): Liver & kidney

Cl.N [Ammonium Chloride]
Subclass/Indication (male Sprague Dawley rats; SpragueDawley rats): Non-Toxic | Tox class (male Sprague Dawley rats; SpragueDawley rats, highest dose level, pathology at 48 h post dose, assumed organ toxicity class): ntx | Diagnosis cc (male Sprague Dawley rats; SpragueDawley rats): + | Diagnosis histo (male Sprague Dawley rats; SpragueDawley rats): 0 | Main target (male Sprague Dawley rats; SpragueDawley rats): Kidney | 2nd toxicity (male Sprague Dawley rats; [1]): Metabolic

[Cl][Hg][Cl] [Mercury Chloride]
Subclass/Indication (male Sprague Dawley rats; SpragueDawley rats): Toxicant | Diagnosis cc (male Sprague Dawley rats; SpragueDawley rats): + | Diagnosis histo (male Sprague Dawley rats; SpragueDawley rats): 3 | Main target (male Sprague Dawley rats; SpragueDawley rats): Nephrotoxic | 2nd toxicity (male Sprague Dawley rats; [1]): Proximal

S=C=Nc1cccc2ccccc12 [ANIT]
Diagnosis cc (male Sprague Dawley rats; SpragueDawley rats): + | Diagnosis histo (male Sprague Dawley rats; SpragueDawley rats): 2bil | Main target (male Sprague Dawley rats; SpragueDawley rats): Hepatotoxic | observed severity of histological lesions (male Sprague Dawley rats): no or minimal liver lesions

CO[C@@]12[C@H](COC(N)=O)C3=C(C(=O)C(C)=C(N)C3=O)N1C[C@@H]1N[C@@H]12 [Mitomycin]
Diagnosis histo (male Sprague Dawley rats; SpragueDawley rats): 1hae | 2nd toxicity (male Sprague Dawley rats; rat, in vivo): Tubules, blood
